The values below come from ChEMBL document CHEMBL1139973, “Synthesis and structure-activity relationships of taxuyunnanine C derivatives as multidrug resistance modulator in MDR cancer cells” (Bioorg Med Chem Lett, 2007).

The subject of one series is HepG2. The experiment in a line: Growth inhibition of human HepG2 cells. In kind it is functional, cell-based.
The target in series [1] is T1, ATP-dependent translocase ABCB1 (Homo sapiens, UniProt P08183). The experiment in a line: Inhibition of Pgp in multidrug-resistant human 2780AD cells assessed as calcein accumulation at 0.25 ug/mL relative to control. Type of series: cell-based. Also noted: scale not given: the % may be the effect or the level left. The settings on record: a2780 adr.
The nature of series [2]: Growth inhibition of human WI38 cells. Type of series: cell-based. The settings on record: WI-38.
A further series deals with WI-38 VA13. Put plainly: Growth inhibition of human VA13 cells. In kind it is functional, cell-based.
For series [3], the target named is T1, ATP-dependent translocase ABCB1. Put plainly: Inhibition of Pgp in multidrug-resistant human 2780AD cells assessed as calcein accumulation at 25 ug/mL relative to control. Type of series: cell-based. Also noted: scale not given: the % may be the effect or the level left. Particulars: a2780 adr.
The target is the same in series [4]. Put plainly: Inhibition of Pgp in multidrug-resistant human 2780AD cells assessed as calcein accumulation at 2.5 ug/mL relative to control. In kind it is cell-based. Details: scale not given: the % may be the effect or the level left. Particulars: a2780 adr.

T1 sequence (P08183 whole entry): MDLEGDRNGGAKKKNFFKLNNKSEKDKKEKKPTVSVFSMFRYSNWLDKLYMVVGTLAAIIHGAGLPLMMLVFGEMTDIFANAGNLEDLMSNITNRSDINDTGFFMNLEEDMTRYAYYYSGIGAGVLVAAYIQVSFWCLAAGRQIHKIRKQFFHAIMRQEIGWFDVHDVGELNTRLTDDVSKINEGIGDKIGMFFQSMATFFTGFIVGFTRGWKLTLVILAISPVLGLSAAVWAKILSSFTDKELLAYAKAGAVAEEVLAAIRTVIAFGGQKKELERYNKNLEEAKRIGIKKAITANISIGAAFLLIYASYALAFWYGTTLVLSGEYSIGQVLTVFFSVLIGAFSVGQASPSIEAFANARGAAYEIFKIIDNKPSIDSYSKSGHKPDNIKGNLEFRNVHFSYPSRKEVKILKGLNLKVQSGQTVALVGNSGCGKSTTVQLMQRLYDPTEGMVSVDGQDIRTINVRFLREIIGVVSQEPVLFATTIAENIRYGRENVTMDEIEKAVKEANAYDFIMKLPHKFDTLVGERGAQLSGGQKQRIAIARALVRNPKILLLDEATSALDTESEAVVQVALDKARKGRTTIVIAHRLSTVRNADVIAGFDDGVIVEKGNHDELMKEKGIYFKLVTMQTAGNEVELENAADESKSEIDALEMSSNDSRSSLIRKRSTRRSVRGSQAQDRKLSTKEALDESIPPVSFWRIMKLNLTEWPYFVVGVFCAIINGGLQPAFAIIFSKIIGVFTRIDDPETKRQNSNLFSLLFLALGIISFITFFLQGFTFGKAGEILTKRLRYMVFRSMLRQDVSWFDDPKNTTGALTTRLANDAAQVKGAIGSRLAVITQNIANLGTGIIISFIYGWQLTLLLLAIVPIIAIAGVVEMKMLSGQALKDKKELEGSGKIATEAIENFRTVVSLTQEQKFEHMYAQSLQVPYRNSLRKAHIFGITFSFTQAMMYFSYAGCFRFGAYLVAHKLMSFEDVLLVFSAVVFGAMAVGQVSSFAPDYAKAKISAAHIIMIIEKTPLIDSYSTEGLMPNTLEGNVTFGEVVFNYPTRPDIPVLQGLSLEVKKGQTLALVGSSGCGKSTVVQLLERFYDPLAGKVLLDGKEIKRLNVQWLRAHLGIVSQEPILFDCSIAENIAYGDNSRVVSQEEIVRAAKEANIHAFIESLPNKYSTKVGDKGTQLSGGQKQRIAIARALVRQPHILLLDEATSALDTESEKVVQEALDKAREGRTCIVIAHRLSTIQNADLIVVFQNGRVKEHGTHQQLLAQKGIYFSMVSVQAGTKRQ

As a reminder, the IC50 is the concentration needed to halve the response being measured. `C=C1[C@@H](OC(C)=O)C[C@H](O)[C@@]2(C)C[C@H](OC(C)=O)C3=C(C)C[C@H](OC(=O)C(C)C(C)O)[C@@H]([C@@H](OC(C)=O)[C@H]12)C3(C)C` (some centres undefined): the IC50 in the series on HepG2 is 153 µM; in series [2], 140 µM; with WI-38 VA13, above 173 µM. Besides, the Activity in series [1] is reported as 87%; in series [3], 107%; in series [4], 104%.
For the compound `C=C1[C@@H](OC(C)=O)CC[C@@]2(C)C[C@H](OC(C)=O)C3=C(C)C[C@H](OC(=O)CC)[C@@H]([C@@H](OC(C)=O)[C@H]12)C3(C)C`, the figures for the IC50 (in the series on HepG2; in series [2]; in the series on WI-38 VA13) were 86.4 µM, above 193 µM and 93.7 µM, respectively. Further, the Activity in series [1] is 104%; in series [3], 119%; in series [4], 98%.
As for `C=C1[C@@H](OC(C)=O)CC[C@@]2(C)C[C@H](OC(C)=O)C3=C(C)C[C@H](OC(=O)C(C)CC)[C@@H]([C@@H](OC(C)=O)[C@H]12)C3(C)C` (some centres undefined), the IC50 is 41.7 µM in the series on HepG2, above 183 µM in series [2] and 61.1 µM in the series on WI-38 VA13. In addition, the Activity is listed as 100% in series [1], 119% in series [3] and 86% in series [4].
Take `C=C1[C@@H](OC(C)=O)CC[C@@]2(C)C[C@H](OC(C)=O)C3=C(C)C[C@H](OC(C)=O)[C@@H]([C@@H](OC(=O)c4ccccc4)[C@H]12)C3(C)C`: the IC50 with HepG2 was found to be 51.9 µM; in series [2] it was 125 µM; in the series on WI-38 VA13 it was 175 µM. The results for the Activity in series [1], in series [3] and in series [4] were 98%, 125% and 96%, respectively.
For `C=C1[C@@H](OC(C)=O)C[C@H](OC(=O)/C=C/c2ccccc2)[C@@]2(C)C[C@H](OC(C)=O)C3=C(C)C[C@H](OC(=O)C(C)C(C)O)[C@@H]([C@@H](OC(C)=O)[C@H]12)C3(C)C` (some centres undefined), the IC50 is 80.4 µM with HepG2, 62.4 µM in series [2] and 49.9 µM with WI-38 VA13. Besides, the Activity in series [1] was 97%; in series [3], 130%; in series [4] it was 102%.
Take `C=C1[C@@H](OC(C)=O)CC[C@@]2(C)C[C@H](OC(C)=O)C3=C(C)C[C@H](OC(=O)C(C)C)[C@@H]([C@@H](OC(C)=O)[C@H]12)C3(C)C`: the IC50 is 28 µM with HepG2, above 188 µM in series [2] and 90.9 µM in the series on WI-38 VA13. In addition, the Activity in series [1] is reported as 133%; in series [3] it was 148%; in series [4] it was 139%.
Consider `C=C1[C@@H](OC(=O)/C=C/c2ccccc2)CC[C@@]2(C)C[C@H](OC(C)=O)C3=C(C)C[C@H](OC(C)=O)[C@@H]([C@@H](OC(C)=O)[C@H]12)C3(C)C`, for which the IC50 amounted to 9.95 µM with HepG2, 99 µM in series [2] and 125 µM with WI-38 VA13. Moreover, the Activity in series [1] was 102%; in series [3] it was 121%; in series [4], 95%.
As for `C=C1[C@@H](OC(C)=O)CC[C@@]2(C)C[C@H](OC(C)=O)C3=C(C)C[C@H](OC(=O)CCC)[C@@H]([C@@H](OC(C)=O)[C@H]12)C3(C)C`, the IC50 was determined as 18.5 µM with HepG2, 73.4 µM in series [2] and 17.2 µM with WI-38 VA13. Further, the Activity is given as 97% in series [1], 114% in series [3] and 98% in series [4].
Regarding `C=C1[C@@H](OC(C)=O)CC[C@@]2(C)C[C@H](OC(C)=O)C3=C(C)C[C@H](OC(=O)CCCC)[C@@H]([C@@H](OC(C)=O)[C@H]12)C3(C)C`, the IC50 in the series with HepG2 was 16.6 µM; in series [2], above 183 µM; in the series on WI-38 VA13, 56.7 µM. In addition, the values for the Activity in series [1], in series [3] and in series [4] were 94%, 111% and 88%, respectively.
